This note sets out measurements from ChEMBL document CHEMBL6153041, “Discovery of High-Affinity SMARCA2/4 Bromodomain Ligands and Development of Potent and Exceptionally Selective SMARCA2 PROTAC Degraders” (J Med Chem, 2025).

Test [1] concerns the target SWI/SNF-related matrix-associated actin-dependent regulator of chromatin subfamily A member 2 (Homo sapiens, UniProt P51531). Nature of the test: Inhibition of recombinant human GST-tagged SMARCA2 bromodomain measured after 120 mins incubation by TR-FRET assay. In general terms: In TR-FRET formats the signal depends on donor and acceptor labels being close together.
The target of test [2] is SWI/SNF-related matrix-associated actin-dependent regulator of chromatin subfamily A member 4 (Homo sapiens, UniProt P51532). Nature of the test: Inhibition of recombinant human GST-tagged SMARCA4 bromodomain measured after 120 mins incubation by TR-FRET assay.
Sequence of SWI/SNF-related matrix-associated actin-dependent regulator of chromatin subfamily A member 4 (P51532 whole entry): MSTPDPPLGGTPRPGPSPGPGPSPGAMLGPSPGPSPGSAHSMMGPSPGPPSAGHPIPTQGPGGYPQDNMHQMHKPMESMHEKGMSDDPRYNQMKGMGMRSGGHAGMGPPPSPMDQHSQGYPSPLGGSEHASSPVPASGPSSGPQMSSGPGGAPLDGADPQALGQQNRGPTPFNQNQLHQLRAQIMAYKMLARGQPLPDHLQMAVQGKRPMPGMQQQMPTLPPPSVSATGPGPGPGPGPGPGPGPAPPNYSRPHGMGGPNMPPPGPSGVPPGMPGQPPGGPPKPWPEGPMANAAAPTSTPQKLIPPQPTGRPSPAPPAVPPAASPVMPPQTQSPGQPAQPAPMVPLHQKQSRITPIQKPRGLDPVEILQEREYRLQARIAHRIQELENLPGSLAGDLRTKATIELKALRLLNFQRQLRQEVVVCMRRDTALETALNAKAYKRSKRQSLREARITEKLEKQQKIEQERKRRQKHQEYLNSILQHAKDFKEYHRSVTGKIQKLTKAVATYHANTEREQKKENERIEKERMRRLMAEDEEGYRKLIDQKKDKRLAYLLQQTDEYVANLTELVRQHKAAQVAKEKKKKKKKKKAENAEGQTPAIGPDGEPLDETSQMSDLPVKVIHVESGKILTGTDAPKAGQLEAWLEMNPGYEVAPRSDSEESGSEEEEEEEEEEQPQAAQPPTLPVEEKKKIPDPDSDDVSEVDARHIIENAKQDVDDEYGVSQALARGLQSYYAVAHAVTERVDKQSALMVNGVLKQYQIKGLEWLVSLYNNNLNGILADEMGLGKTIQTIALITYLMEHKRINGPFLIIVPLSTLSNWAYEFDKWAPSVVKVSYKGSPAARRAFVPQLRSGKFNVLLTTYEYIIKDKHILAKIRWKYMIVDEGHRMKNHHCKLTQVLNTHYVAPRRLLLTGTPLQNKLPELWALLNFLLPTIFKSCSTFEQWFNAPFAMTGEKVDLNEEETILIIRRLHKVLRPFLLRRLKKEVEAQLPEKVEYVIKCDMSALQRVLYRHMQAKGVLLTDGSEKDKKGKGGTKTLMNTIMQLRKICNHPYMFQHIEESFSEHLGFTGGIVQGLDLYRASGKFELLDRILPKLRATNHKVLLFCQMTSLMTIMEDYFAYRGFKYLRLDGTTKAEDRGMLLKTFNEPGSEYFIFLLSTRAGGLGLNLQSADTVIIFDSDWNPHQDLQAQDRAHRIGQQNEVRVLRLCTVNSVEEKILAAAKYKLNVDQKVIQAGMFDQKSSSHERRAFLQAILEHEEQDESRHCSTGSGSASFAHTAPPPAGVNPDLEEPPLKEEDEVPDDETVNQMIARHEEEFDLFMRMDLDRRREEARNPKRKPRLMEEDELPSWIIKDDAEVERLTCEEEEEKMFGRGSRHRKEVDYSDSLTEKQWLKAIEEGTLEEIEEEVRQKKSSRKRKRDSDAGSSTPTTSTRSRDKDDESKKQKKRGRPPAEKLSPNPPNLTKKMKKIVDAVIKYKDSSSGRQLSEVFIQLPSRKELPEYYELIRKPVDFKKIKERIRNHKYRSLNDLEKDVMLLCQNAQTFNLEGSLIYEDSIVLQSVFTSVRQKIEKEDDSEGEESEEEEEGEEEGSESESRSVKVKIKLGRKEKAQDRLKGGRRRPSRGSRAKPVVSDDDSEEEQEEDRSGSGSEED
In test [3] the target is T1, von Hippel-Lindau disease tumor suppressor/SWI/SNF-related matrix-associated actin-dependent regulator of chromatin subfamily A member 2 (Homo sapiens, UniProt P51531+P40337). Nature of the test: PROTAC activity at VHL1/SMARCA2 in human genetically modified Hela cells assessed as degradation measured after 24 hrs incubation by Nano-Glo HiBiT Lytic Detection Assay. It counts as cell-based. In general terms: With HiBiT, luminescence reflects the tagged protein that the partner subunit can reach.
Target sequence in this assay (P51531 whole entry): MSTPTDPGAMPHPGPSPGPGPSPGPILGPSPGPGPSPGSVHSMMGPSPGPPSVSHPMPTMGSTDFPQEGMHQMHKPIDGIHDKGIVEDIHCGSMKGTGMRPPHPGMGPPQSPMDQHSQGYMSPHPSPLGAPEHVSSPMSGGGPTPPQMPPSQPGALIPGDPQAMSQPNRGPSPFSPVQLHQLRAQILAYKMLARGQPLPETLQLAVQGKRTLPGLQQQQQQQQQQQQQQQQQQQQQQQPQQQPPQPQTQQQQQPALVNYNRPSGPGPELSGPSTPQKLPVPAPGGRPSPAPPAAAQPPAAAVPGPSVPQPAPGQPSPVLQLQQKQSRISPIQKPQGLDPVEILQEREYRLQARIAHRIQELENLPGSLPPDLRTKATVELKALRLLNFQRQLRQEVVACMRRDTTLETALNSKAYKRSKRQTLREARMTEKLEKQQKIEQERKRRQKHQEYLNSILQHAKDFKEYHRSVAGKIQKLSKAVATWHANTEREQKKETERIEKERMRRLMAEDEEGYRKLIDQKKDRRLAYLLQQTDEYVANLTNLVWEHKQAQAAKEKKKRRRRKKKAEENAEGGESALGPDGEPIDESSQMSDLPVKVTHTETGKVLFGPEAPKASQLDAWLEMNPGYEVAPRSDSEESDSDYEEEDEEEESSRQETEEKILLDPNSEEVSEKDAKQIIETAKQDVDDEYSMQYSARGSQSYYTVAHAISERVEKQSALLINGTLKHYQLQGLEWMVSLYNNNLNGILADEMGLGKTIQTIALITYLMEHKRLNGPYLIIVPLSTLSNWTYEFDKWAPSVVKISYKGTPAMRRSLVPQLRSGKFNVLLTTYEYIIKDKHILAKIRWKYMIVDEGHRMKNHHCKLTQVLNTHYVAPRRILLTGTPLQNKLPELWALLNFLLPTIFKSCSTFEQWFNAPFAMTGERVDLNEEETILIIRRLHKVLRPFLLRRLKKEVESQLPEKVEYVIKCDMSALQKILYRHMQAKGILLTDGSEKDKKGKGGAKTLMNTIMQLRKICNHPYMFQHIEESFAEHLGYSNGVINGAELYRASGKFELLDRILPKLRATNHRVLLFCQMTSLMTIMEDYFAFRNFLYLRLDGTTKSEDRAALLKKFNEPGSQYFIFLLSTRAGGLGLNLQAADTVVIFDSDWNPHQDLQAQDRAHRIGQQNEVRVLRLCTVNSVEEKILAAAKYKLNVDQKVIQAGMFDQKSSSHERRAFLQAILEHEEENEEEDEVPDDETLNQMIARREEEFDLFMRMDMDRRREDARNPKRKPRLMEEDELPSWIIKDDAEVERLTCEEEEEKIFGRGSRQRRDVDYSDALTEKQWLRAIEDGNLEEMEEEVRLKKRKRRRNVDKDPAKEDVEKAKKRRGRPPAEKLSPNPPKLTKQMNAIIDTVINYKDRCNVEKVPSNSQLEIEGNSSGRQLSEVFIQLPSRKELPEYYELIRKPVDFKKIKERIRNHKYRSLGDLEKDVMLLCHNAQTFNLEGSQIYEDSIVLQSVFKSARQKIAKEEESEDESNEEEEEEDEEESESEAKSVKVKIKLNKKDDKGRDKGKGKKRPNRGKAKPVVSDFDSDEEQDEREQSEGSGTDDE
Target sequence in this assay (P40337 whole entry): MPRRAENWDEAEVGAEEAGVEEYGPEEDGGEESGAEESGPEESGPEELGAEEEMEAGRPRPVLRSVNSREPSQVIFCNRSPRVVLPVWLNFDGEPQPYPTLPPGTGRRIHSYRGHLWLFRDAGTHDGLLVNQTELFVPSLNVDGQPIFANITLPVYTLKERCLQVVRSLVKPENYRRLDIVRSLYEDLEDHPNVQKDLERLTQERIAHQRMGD

For test [4], the target named is T1, von Hippel-Lindau disease tumor suppressor/SWI/SNF-related matrix-associated actin-dependent regulator of chromatin subfamily A member 2. Nature of the test: PROTAC activity at VHL1/SMARCA2 in human genetically modified Hela cells assessed as maximal degradation measured after 24 hrs incubation by Nano-Glo HiBiT Lytic Detection Assay relative to control. It counts as cell-based.
Target sequence in this assay (P40337 whole entry, looked up): as the sequence (P40337 whole entry) above
Target sequence in this assay (P51531 whole entry, looked up): as the sequence (P51531 whole entry) above

The target in test [5] is T2, von Hippel-Lindau disease tumor suppressor/SWI/SNF-related matrix-associated actin-dependent regulator of chromatin subfamily A member 4 (Homo sapiens, UniProt P51532+P40337). Put plainly: PROTAC activity at VHL1/SMARCA4 in human genetically modified Hela cells assessed as degradation measured after 24 hrs incubation by Nano-Glo HiBiT Lytic Detection Assay. The class given is cell-based.
Target sequence in this assay (P51532 whole entry): as the sequence (P51532 whole entry) above
Target sequence in this assay (P40337 whole entry): as the sequence (P40337 whole entry) above

Test [6] concerns the target T2, von Hippel-Lindau disease tumor suppressor/SWI/SNF-related matrix-associated actin-dependent regulator of chromatin subfamily A member 4. Nature of the test: PROTAC activity at VHL1/SMARCA4 in human genetically modified Hela cells assessed as maximal degradation measured after 24 hrs incubation by Nano-Glo HiBiT Lytic Detection Assay relative to control. The class given is cell-based.
Target sequence in this assay (P40337 whole entry, looked up): as the sequence (P40337 whole entry) above
Target sequence in this assay (P51532 whole entry, looked up): as the sequence (P51532 whole entry) above

Test [7] deals with HeLa. Nature of the test: Selectivity ratio, ratio of DC50 for VHL1/SMARCA4 in human genetically modified Hela cells to VHL1/SMARCA2 in human genetically modified Hela cells. The class given is cell-based.

Sequence of SWI/SNF-related matrix-associated actin-dependent regulator of chromatin subfamily A member 2 (P51531 whole entry): as the sequence (P51531 whole entry) above

Usually IC50 stands for the concentration that inhibits the measured activity by half. For the compound `O=c1nc2n(c3cccc(Cl)c13)-c1ccc(C3CCNCC3)cc1C21CCOCC1`, the IC50 in test [1] came to 538 nM; in test [2], 612 nM.

In general, DC50 refers to the concentration at which degradation of the target reaches its halfway point. The Emax is the greatest response seen or fitted, relative to the assay's reference. For `Cc1ncsc1-c1ccc([C@H](CCCCCN2CCC(c3ccc4c(c3)C3(CCCCC3)c3nc(=O)c5c(Br)cccc5n3-4)CC2)NC(=O)[C@@H]2C[C@@H](O)CN2C(=O)[C@@H](NC(=O)C2(F)CC2)C(C)(C)C)cc1`, the DC50 in test [3] came out at 0.24 nM; in test [5] it was 1.7 nM. The Emax in test [4] and in test [6] was 97% in each case. In addition, the Ratio in test [7] was 7.

Turning to `Cc1ncsc1-c1ccc([C@H](CCCCCN2CCC(c3ccc4c(c3)-n3c(nc(=O)c5c(Cl)cccc53)C43CCCCC3)CC2)NC(=O)[C@@H]2C[C@@H](O)CN2C(=O)[C@@H](NC(=O)C2(F)CC2)C(C)(C)C)cc1`, the 50% degradation concentration (DC50) in test [3] amounted to 7.5 nM; in test [5], 22 nM. Further, the Emax is 92% in test [4] and 87% in test [6]. Besides, in test [7], the Ratio turned out to be 3.

As for `O=c1nc2n(c3ccnc(O)c13)-c1cc(C3CCNCC3)ccc1C21CCCCC1`, the IC50 in test [1] and in test [2] was over 10000 nM in each case.

With `O=c1nc2n(c3cccc(Cl)c13)-c1cc(C3CCNCC3)ccc1C21CCCC1`, the 50% inhibitory concentration (IC50) is 106 nM in test [1] and 133 nM in test [2].

On to `Cc1ncsc1-c1ccc([C@H](C)NC(=O)[C@@H]2C[C@@H](O)CN2C(=O)[C@@H](NC(=O)CCCCCN2CCC(c3ccc4c(c3)C3(CCCCC3)c3nc(=O)c5c(Cl)cccc5n3-4)CC2)C(C)(C)C)cc1`, for which the 50% degradation concentration (DC50) in test [3] turned out to be 29 nM; in test [5], 697 nM. Also, the figures for the Emax in test [4] and in test [6] were 94% and 55%, respectively. Besides, in test [7], the Ratio is 24.

Consider `O=c1nc2n(c3cccc(Cl)c13)-c1ccc(C3CCNCC3)cc1C21CCCCC1`, for which, in test [1], the IC50 came out at 53 nM.

In the case of `O=c1nc2n(c3cccc(Br)c13)-c1ccc(C3CCNCC3)cc1C21CCCC1`, the IC50 in test [1] came out at 62 nM; in test [2], 51 nM.

For the compound `O=c1nc2n(c3cccc(Br)c13)-c1ccc(C3CCNCC3)cc1C21CCCCC1`, the concentration for half-maximal inhibition (IC50) in test [1] came out at 30 nM; in test [2], 38 nM.

For the compound `Cc1ncsc1-c1ccc([C@H](C)NC(=O)[C@@H]2C[C@@H](O)CN2C(=O)[C@@H](NC(=O)CCN2CCC(c3ccc4c(c3)C3(CCCCC3)c3nc(=O)c5c(Cl)cccc5n3-4)CC2)C(C)(C)C)cc1`, the DC50 in test [3] worked out at 99 nM; in test [5] it was 543 nM. Moreover, the Emax in test [4] was determined as 93%; in test [6] it was 77%. The Ratio in test [7] came out at 6.

As for `Cc1ncsc1-c1ccc([C@H](C)NC(=O)[C@@H]2C[C@@H](O)CN2C(=O)[C@@H](NC(=O)CCCCN2CCC(c3ccc4c(c3)C3(CCCCC3)c3nc(=O)c5c(Cl)cccc5n3-4)CC2)C(C)(C)C)cc1`, the 50% degradation concentration (DC50) in test [3] was 105 nM; in test [5] it was over 10000 nM. The maximal response (Emax) is 88% in test [4] and over 39% in test [6]. Besides, the Ratio in test [7] was over 950.

Take `O=c1nc2n(c3ccccc13)-c1cc(C3CCNCC3)ccc1C21CCCCC1`: the figures for the concentration for half-maximal inhibition (IC50) in test [1] and in test [2] were 3070 nM and 1440 nM, respectively.

Take `O=c1nc2n(c3cccc(Br)c13)-c1cc(C3CCNCC3)ccc1C21CCCCC1`: the figures for the half-inhibitory concentration (IC50) in test [1] and in test [2] were 64 nM and 90 nM, respectively.

Turning to `O=c1nc2n(c3cccc(Cl)c13)-c1ccc(C3CCNCC3)cc1C21CCNCC1`, the 50% inhibitory concentration (IC50) in test [1] was determined as 3450 nM; in test [2] it was 3340 nM.

`CCc1cccc2c1c(=O)nc1n2-c2cc(C3CCNCC3)ccc2C12CCCCC2`: the IC50 in test [1] was 3400 nM; in test [2], 2840 nM.

On to `Cc1ncsc1-c1ccc([C@H](C)NC(=O)[C@@H]2C[C@@H](O)CN2C(=O)[C@@H](c2cc(N3CCC(CN4CCC(O[C@H]5C[C@H](Oc6cc(CN7C8CCC7CN(c7cc(-c9ccccc9O)nnc7N)C8)ccn6)C5)CC4)CC3)no2)C(C)C)cc1`, for which the half-maximal degradation concentration (DC50) was 0.1 nM in test [3] and 1.3 nM in test [5]. For the same compound, the Emax in test [4] stood at 97%; in test [6], 96%. For the same compound, the Ratio in test [7] amounted to 13.

Regarding `Cc1ncsc1-c1ccc([C@H](C)NC(=O)[C@@H]2C[C@@H](O)CN2C(=O)[C@@H](NC(=O)CN2CCC(c3ccc4c(c3)C3(CCCCC3)c3nc(=O)c5c(Cl)cccc5n3-4)CC2)C(C)(C)C)cc1`, the half-maximal degradation concentration (DC50) in test [3] turned out to be 5.3 nM; in test [5] it was 8.7 nM. Further, the maximal effect (Emax) in test [4] and in test [6] was 97% in each case. For the same compound, the Ratio in test [7] was 2.

As to `Cc1ncsc1-c1ccc([C@H](C)NC(=O)[C@@H]2C[C@@H](O)CN2C(=O)[C@@H](NC(=O)[C@H]2CC[C@H](CN3CCC(c4ccc5c(c4)-n4c(nc(=O)c6c(Br)cccc64)C54CCCCC4)CC3)CC2)C(C)(C)C)cc1`, the half-maximal degradation concentration (DC50) is 14 nM in test [3] and over 10000 nM in test [5]. The maximal response (Emax) worked out at 88% in test [4] and 37% in test [6]. Besides, the Ratio in test [7] is over 700.

As to `O=c1nc2n(c3cccc(Cl)c13)-c1cc(C3CCNCC3)ccc1C21CCOCC1`, the figures for the 50% inhibitory concentration (IC50) in test [1] and in test [2] were 630 nM and 1150 nM, respectively.

`Cc1ncsc1-c1ccc([C@H](C)NC(=O)[C@@H]2C[C@@H](O)CN2C(=O)[C@@H](NC(=O)[C@H]2CC[C@H](CN3CCC(c4ccc5c(c4)C4(CCCCC4)c4nc(=O)c6c(Cl)cccc6n4-5)CC3)CC2)C(C)(C)C)cc1`: the maximum response (Emax) in test [4] stood at 92%; in test [6], 48%. For the same compound, in test [5], the 50% degradation concentration (DC50) is over 10000 nM. Moreover, the Ratio in test [7] is over 1500.

Regarding `Cc1ncsc1-c1ccc([C@H](C)NC(=O)[C@@H]2C[C@@H](O)CN2C(=O)[C@@H](NC(=O)[C@H]2CC[C@H](CN3CC4(CCC(n5cc(-c6cc(-c7ccccc7O)nnc6N)cn5)CC4)C3)CC2)C(C)(C)C)cc1`, the results for the DC50 in test [3] and in test [5] were 23 nM and 895 nM, respectively. Besides, the Emax came to 93% in test [4] and 52% in test [6]. For the same compound, in test [7], the Ratio stood at 39.

Take `O=c1nc2n(c3cccc(O)c13)-c1cc(C3CCNCC3)ccc1C21CCCCC1`: the results for the IC50 in test [1] and in test [2] were 4520 nM and 3210 nM, respectively.

Regarding `Cc1ncsc1-c1ccc([C@H](C)NC(=O)[C@@H]2C[C@@H](O)CN2C(=O)[C@@H](NC(=O)CCCN2CCC(c3ccc4c(c3)C3(CCCCC3)c3nc(=O)c5c(Cl)cccc5n3-4)CC2)C(C)(C)C)cc1`, the figures for the DC50 in test [3] and in test [5] were 61 nM and 7000 nM, respectively. For the same compound, the Emax was 87% in test [4] and 70% in test [6]. The Ratio in test [7] is 115.

Take `O=c1nc2n(c3nccc(O)c13)-c1cc(C3CCNCC3)ccc1C21CCCCC1`: the IC50 in test [1] and in test [2] was over 10000 nM each time.

With `O=c1nc2n(c3cccc(Cl)c13)-c1ccc(C3CCNCC3)cc1C21CCCCCC1`, the IC50 is 153 nM in test [1] and 129 nM in test [2].

Take `O=c1nc2n(c3cccc(Cl)c13)-c1ccc(C3CCNCC3)cc1C21CCCC1`: the half-inhibitory concentration (IC50) is 56 nM in test [1] and 55 nM in test [2].

Turning to `Cc1ncsc1-c1ccc([C@H](C)NC(=O)[C@@H]2C[C@@H](O)CN2C(=O)[C@@H](NC(=O)[C@H]2CC[C@H](CN3CCC(c4ccc5c(c4)C4(CCCCC4)c4nc(=O)c6c(Br)cccc6n4-5)CC3)CC2)C(C)(C)C)cc1`, the values for the DC50 in test [3] and in test [5] were 3 nM and 162 nM, respectively. Also, the maximal effect (Emax) was determined as 93% in test [4] and 58% in test [6]. The Ratio in test [7] is 54.

Regarding `O=c1nc2n(C3CCCC3)c3cc(C4CCNCC4)ccc3n2c2cccc(Br)c12`, the concentration for half-maximal inhibition (IC50) in test [1] was found to be 45 nM; in test [2] it was 83 nM.
